Here are results for 2 compounds from publication PMC11435890, “Enzymatic Hydrolysis of Resorcylic Acid Lactones by an Aeromicrobium sp” (Toxins, 2024).

The term Km denotes the substrate concentration at which the rate is half of its maximum.

Test [1] concerns T1, RALH (resorcylic acid lactone hydrolase).
T1 construct: recombinant, codon-optimized, E. coli BL21(DE3); N-terminal His6-MBP tag removed with TEV protease; homologue alignment 303/316 residues (RALH vs ZenH); catalytic triad Ser117, Asp142, His292
Description: LC-HRMS quantification of hydrolyzed product (HZEN), Michaelis-Menten fit. The settings on record: 50 mM Tris-HCl pH 8.0, 1% BSA, 37 °C, 25 nM RALH, 20 min. The test is classed as biochemical, Aeromicrobium sp. LRDC-1.

Another test deals with T2, ScHsp82 (ScHSP82) (Saccharomyces cerevisiae, UniProt P02829).
T2 construct: gene HSP82; Ni-NTA and gel permeation
The test is described as follows: malachite green ATPase inhibition assay. The test is classed as biochemical. The settings on record: 1 mM ATP, 4% DMSO, 100 mM Tris-HCl pH 7.5, 20 mM KCl, 6 mM MgCl2, 37 °C, 3 h.

In test [2] the test system is T1, RALH (resorcylic acid lactone hydrolase). The test is described as follows: LC-HRMS quantification of hydrolyzed product (HRAD), Michaelis-Menten fit. It counts as biochemical, Aeromicrobium sp. LRDC-1. The settings on record: 50 mM Tris-HCl pH 8.0, 1% BSA, 37 °C, 25 nM RALH, 5 min.

T2 sequence (P02829 whole entry): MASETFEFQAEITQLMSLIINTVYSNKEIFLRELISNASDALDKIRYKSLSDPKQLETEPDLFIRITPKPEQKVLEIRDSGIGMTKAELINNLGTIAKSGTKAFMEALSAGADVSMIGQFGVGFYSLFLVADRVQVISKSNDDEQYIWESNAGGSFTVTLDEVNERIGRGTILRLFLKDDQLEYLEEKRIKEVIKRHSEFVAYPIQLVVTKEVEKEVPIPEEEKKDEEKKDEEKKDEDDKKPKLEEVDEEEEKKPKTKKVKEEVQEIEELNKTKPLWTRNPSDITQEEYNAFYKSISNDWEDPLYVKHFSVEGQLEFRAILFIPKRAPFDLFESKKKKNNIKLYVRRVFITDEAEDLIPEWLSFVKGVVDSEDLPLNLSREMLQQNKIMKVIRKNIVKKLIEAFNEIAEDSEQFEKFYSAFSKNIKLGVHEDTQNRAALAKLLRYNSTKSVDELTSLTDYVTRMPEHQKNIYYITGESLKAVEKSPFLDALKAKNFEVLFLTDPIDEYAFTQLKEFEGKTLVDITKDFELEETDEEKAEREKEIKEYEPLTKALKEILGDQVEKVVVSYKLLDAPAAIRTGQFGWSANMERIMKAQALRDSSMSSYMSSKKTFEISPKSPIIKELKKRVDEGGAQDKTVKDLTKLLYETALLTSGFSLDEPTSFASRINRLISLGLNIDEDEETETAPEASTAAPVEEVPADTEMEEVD

Consider `C[C@H]1CCCC(=O)CCC/C=C/c2cc(O)cc(O)c2C(=O)O1` [I, ZEN], for which the Km in test [1] was 24 µM. In addition, the “% decrease in ATPase activity at 50 μM” value at ScHsp82 (ScHSP82) stood at 53%.

As to `C[C@@H]1C[C@H]2O[C@@H]2/C=C\C=C\C(=O)Cc2c(Cl)c(O)cc(O)c2C(=O)O1` [III, RAD], the Km in test [2] is 1200 µM.
